# US20030129189A1, “Tumor necrosis factor-gamma” (priority 1994, published 2003)
# Experiments:
# THP-1 = experiment: TNF-gamma activity on THP-1 cells; type: cell-based; parameters: key: The numbers of “+” indicate the relative level of activities.; ++: The numbers of “+” indicate the relative level of activities.; +++: The numbers of “+” indicate the relative level of activities.; “−” indicates no detected activity at the concentration range tested; conditions: THP-1, human monocytic leukemia
# Primary HUVEC = experiment: TNF-gamma activity on primary HUVEC; type: cell-based, human; parameters: key: The numbers of “+” indicate the relative level of activities.; ++: The numbers of “+” indicate the relative level of activities.; +++: The numbers of “+” indicate the relative level of activities.; “−” indicates no detected activity at the concentration range tested
# HL-60 = experiment: TNF-gamma activity on HL-60 cells (incl. cell adhesion); type: cell-based, human; parameters: key to Proliferation / Differentiation / Adhesion: The numbers of “+” indicate the relative level of activities.; ++: The numbers of “+” indicate the relative level of activities.; +++: The numbers of “+” indicate the relative level of activities.; “−” indicates no detected activity at the concentration range tested
# Method: The adherent target cells were prepared from confluent cultures by trypsinization in PBS, and non-adherent target cells were harvested from stationary cultures and washed once with medium. Target cells were suspended at 3×10^5 cells/ml in medium containing 10% FCS. 0.1 ml aliquots were dispensed into 96-well flat-bottomed microtiter plates containing 0.1 ml serially diluted test samples of cells (WEHI 164 and L929). Incubation was continued for 70 hours. TNF-alpha, TNF-beta and bacterially-produced TNF-gamma were added at a 0.5 μg/ml concentration. The cytotoxicity and proliferation activity was quantified using an MTS assay performed by the addition of 20 μl of MTS and phenazine methosulfate (PMS) solution to each well. After a three hour incubation, the OD at 492 nm was measured by an ELISA plate reader. The OD492 is proportional to the number of viable cells in the wells. The percent of cytotoxicity was calculated as follows: […]. The photographs were taken after 72 hours.
# To test adhesion ability of TNF-gamma, HL-60 cells were used and cell adhesion and cell-cell contact were measured by observation under the microscope and scored subjectively by two independent investigators. FIG. 11 illustrates the ability of TNF-gamma to induce cell adhesion. Cultures which were not treated with TNF-gamma contained cells which had spread throughout the culture dish.
# WEHI 164 cells = experiment: Measurement of apoptosis (nucleosome ELISA); type: cell-based, mouse; conditions: increasing amounts (FIG. 12)
# Method: In a first incubation step, anti-histone antibody was fixed adsorptively on the wall of a microtiter plate module. Subsequently, non-specific binding sites on the wall were saturated by treatment with incubation buffer (e.g., blocking solution). During the second incubation step, the nucleosomes contained in the WEHI 164 cell sample treated with the TNF-alpha, TNF-beta or bacterially-produced TNF-gamma were bound via their histone components to the immobilized anti-histone antibody. In the third incubation step, anti-DNA-peroxidase (POD) reacted with the DNA component of the nucleosomes. After removal of all unbound peroxidase conjugate by a washing step, the amount of peroxidase retained in the immunocomplex was determined spectrophotometrically using the substrate ABTS (2,2′-azino-di-[3-ethylbenzthiazoline sulfonate]). Anti-histone antibody reacted with the histones H1, H2A, H2B, H3, and H4 from the sample. Anti-DNA POD antibody bound to single- and double-stranded DNA. Therefore, the ELISA allowed the detection of mono- and oligonucleosomes and may be applied to measure apoptotic cell death. The level of cell death was measured by the amount of cytoplasmic histone-associated DNA fragments which was indicated by the ratio of the absorbances observed at 405 and 490 nm (A405/A490). […]
# NF-kappaB in U937 cells = experiment: NF-kappaB-SEAP reporter assay; type: cell-based; conditions: 72 hr
# Method: [Bovine pulmonary artery endothelial cells were incubated with various concentrations of TNF-gamma for 48 hours. The apoptosis was assessed by nuclear staining with Hoechst 33342 fluorescence dye (10 mg/ml).] […] [U937 cells were transfected using lipofectamine (following manufacturer's instruction) with 0.2 mg of reporter plasmid (NF-kappaB-SEAP). The transfected U937 cells were collected and added to the 96-well plate ([…]/well) with various concentrated of TNF-gamma. After Incubation at 37° C. for 72 hr, the NF-kappaB activity was measured with luminometer at absorbance of 450 nm.]
# Consistent with the Northern blot analysis, peripheral blood mononuclear cells (PBMC) and human umbilical vein endothelial cells (HUVEC) express TNF-gamma on the cell surface by immunostaining with antibody to TNF-gamma. […] The cells were incubated for 30 min at 40° C. with antibody (10 mg/ml ) to TNF-gamma to detected expression of TNF-gamma on cell surface, with DR3-Fc or LTbR-Fc (10 mg/ml) for receptor and ligand binding in the binding buffer (HBSS containing 10% BSA, 20 mM HEPES, pH 7.2, 0.02% NaN3). […] Fluorescence was analyzed by a FACscan flow cytometer (Becton Dickinson, Mountain View, Calif.).] […] After incubation at 37° C. for 72 hr, the NF-kB activity was measured with luminometer at absorbance of 450 nm.] […]
# [1] = system: adult bovine aortic endothelial cells; experiment: Endothelial cell apoptosis; type: cell-based
# [2] = HL-60, human promyelocytic leukemia
substance,measurement,setting,value
TNF-gamma: new member of the tumor necrosis factor family; the term refers to TNF-gamma-alpha and/or TNF-gamma-beta,Adhesion,THP-1,++
same,Differentiation,THP-1,++
same,Proliferation,THP-1,−
same,Differentiation,Primary HUVEC,−?
same,Proliferation,Primary HUVEC,++
same,Adhesion,HL-60; [2],++
same,Differentiation,HL-60; [2],−
same,Proliferation,HL-60; [2],−
same,cell adhesion and cell-cell contact,"HL-60; HL-60 cells, observation under the microscope (FIG. 11)",clearly aggregated together
same,"apoptosis (cytoplasmic histone-associated DNA fragments, A405/A490)",WEHI 164 cells,increasingly high levels of apoptosis
same,NF-kappaB activation,NF-kappaB in U937 cells,induces nuclear factor-kappaB (NF-kappaB)
same,apoptosis,[1],induces apoptosis
